Patent EP2845588A1, “PIN1 inhibitors for use in the prevention and/or treatment of theileriosis, and related applications” (Centre National de la Recherche Scientifique (CNRS), priority 2013, dated 2015)
Read-outs that look alike come from different tables or passages of the source.

Tests used:
PIN1 [1] = molecular target: T1, PIN1 (Homo sapiens, UniProt Q13526); conditions: cited from earlier work; for IC50: read-out: PIN1 inhibition IC50
[2] = test system: non-parasitized BL3 cells; test: Cell proliferation, live cell count after trypan blue exclusion, BL3; assay type: cell-based, bovine; conditions: BL3 / uninfected cells
Protocol: All infected bovine cell lines used in this study were previously described: TBL3 cells were derived from in vitro infection of the spontaneous bovine-B lymphosarcoma cell line, BL3, with Hissar stock of T.annulata. The TpMD409 lymphocyte cell line are infected with T. parva. The culture conditions of these cell lines were previously described by Moreau et al., 1999. Cells were cultured in RPMI 1640 (Gibco-BRL, Paisley, UK), supplemented with 10% heat-inactivated Fetal calf serum, 4mM L-Glutamine, 25mM HEPES, 10µM β-mercaptoethanol and 100µg/ml penicillin/streptomycin in a humidified 5%CO2 atmosphere at 37°C. HepG2, NIH/3T3 and MEF cells lines were cultured in DMEM (Gibco-BRL, Paisley, UK), supplemented with 10% heat-inactivated Fetal calf serum, 4mM L-Glutamine, 25 mM HEPES, 10µM β-mercaptoethanol and 100µg/ml penicillin/streptomycin in a humidified 5% CO2 atmosphere at 37°C. Cell numbers, as judged by Trypan Blue exclusion test, were determined by counting cells using a Countess automated cell counter (Invitrogen, CA, USA). The anti-parasite drug Buparvaquone (BW720c) was used at 200ng/ml for 72 hours. BW720c has no effect on growth of uninfected cells.
Cells were treated with either Juglone at 5 µM resuspended in Ethanol (Sigma, St Louis, MO, Ref.: H47003), or PiB at 1 µM resuspended in DMSO (Sigma, Ref.: B7688), or Dimethyloxalylglycine DMOG at 0.5 mM resuspended in DMSO (Tebu-bio, MO, USA).

[3] = test system: FBW7 and c-Jun mRNA in TBL3 cells; test: RT-qPCR of FBW7 and c-Jun mRNA in TBL3 cells; assay type: cell-based, bovine
Protocol: Total cellular RNAs were extracted using an RNeasy Plus Mini Kit (Qiagen, Hilden, Germany) and parasite RNAs were extracted using the classical Trizol Protocol. cDNA synthesis was performed with the Reverse Transcriptase Superscript III (Invitrogen, CA, USA).
Quantitative PCR amplification was performed in the ABI 7500 machine (Applied Biosystems, CA, USA) using the Sybr Green reagent (Applied Biosystems, CA, USA) using the primers listed in Table 5 below. The detection of a single product was verified by dissociation curve analysis. Relative quantities of mRNA were analyzed using the delta Ct method. The βactin qPCR was used for normalization. Table 5: qPCR primers

PIN1 [4] = molecular target: T1, PIN1; conditions: cited from earlier work

T1 sequence (Q13526 whole entry): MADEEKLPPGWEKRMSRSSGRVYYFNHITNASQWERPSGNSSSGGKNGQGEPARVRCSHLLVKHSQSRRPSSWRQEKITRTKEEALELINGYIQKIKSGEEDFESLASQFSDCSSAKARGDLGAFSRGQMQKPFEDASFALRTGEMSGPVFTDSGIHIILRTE

## S=C(SC(=S)N1CCCCC1)N1CCCCC1 [1-Piperidinecarbodithioic acid, anhydrosulfide]
PIN1 [1]
  IC50: 4100 nM

## CN1C(=O)c2ccc3c4c(ccc(c24)C1=O)C(=O)N(C)C3=O [2,7-Dimethylbenzo[Imn][3,8]phenanthroline-1,3,6,8(2H,7H)-tetrone]
PIN1 [1]
  IC50: 2000 nM

## O=C1Nc2ccc([N+](=O)[O-])cc2/C1=C1/Nc2ccccc2/C1=N/O [(3Z)-3-[(3Z)-3-hydroxyiminoindolin-2-ylidene]-5-nitro-indolin-2-one]
PIN1 [1]; cell prints neither Ki nor IC50
  PIN1 inhibition (Ki and/or IC50): 500 to 2500 nM

## CCOC(=O)CN1C(=O)c2ccc3c4ccc5c6c(ccc(c7ccc(c2c37)C1=O)c64)C(=O)N(CC(=O)OCC)C5=O [Diethyl 2,2'-(1,3,8,10-tetraoxo-1,3,8,10-tetrahydroisoquinolino[4 ',5',6':6,5,10]anthra[2,1,9-def]isoquinoline-2,9-diyl)diacetate]
PIN1 [1]
  IC50: 1500 nM

## CCOC(=O)CN1C(=O)c2cccc3cccc(c23)C1=O [Ethyl (1,3-dioxo-1H-benzo[de]isoquinolin-2(3H)-yl)acetate]
PIN1 [1]
  IC50: 5000 nM

## O=C1C=CC(=O)c2c(O)cccc21 [Juglone, 5-Hydroxy-1,4-naphthlenedione]
[2]
  proliferation of non-parasitized cells: no effect
[3]
  mRNA expression: no effect

## Ac-Lys(N-biotinoyl)-Ala-Ala-Bth-D-Thr(PO3H2)-Pip-Nal-Gln-NH2
PIN1 [4]; read-out: PIN1 inhibition Ki
  Ki: 1.2 nM

## Ac-Phe-Phe-pSer-Ψ[(Z)CHdC]-Pro-Arg-NH2
PIN1 [4]; read-out: PIN1 inhibition IC50
  IC50: 1300 nM
PIN1 [4]; read-out: PIN1 inhibition Kis
  Ki: 1740 nM

## CRYPEVEIC
PIN1 [4]; read-out: PIN1 inhibition Ki
  Ki: 520 nM
